Reference: article PMC3349126, “Evaluation of the Cytotoxicity of Satureja spicigera and Its Main Compounds” (The Scientific World Journal, 2012)
In brackets after ≈: the same amount, converted by molar mass. Counter-ions that a name gives are not always drawn.

How the values were obtained:
[1] = Brine shrimp lethality assay (BSA); settings: Artemia salina (brine shrimp) nauplii, in vivo, probit analysis, read-out: LC50 against Artemia salina larvae
Method: Gohari et al. reported the method which was adopted to study the cytotoxic activity of the compounds [11]. Water life brand brine shrimp (Artemia salina) eggs were purchased from the Shalat Center (Tehran). The eggs were hatched in a flask containing 300 mL artificial seawater made […]. The flask was well aerated with the aid of an air pump and kept in a water bath at 29-30°C. A bright light was left on. The nauplii hatched within 48 h. The extracts and pure compounds were dissolved in normal saline. Different concentrations were obtained by serial dilution. Solution of each concentration (500 μL) was transferred into clean 24-well plates via a pipette, and aerated seawater having 10–20 nauplii (500 μL) was added. A check count was performed and the number alive noted after 24 h. The mortality end point of the bioassay was determined as the absence of controlled forward motion during 30 seconds of observation. […] Lethality percentage was determined and LC50 calculated based on probit analysis with 95% of confidence interval [11].

[2] = tested on: Caco-2 (colon adenocarcinoma); experiment: MTT cytotoxicity assay, Caco-2; format: cell-based; settings: Homo sapiens, 48 hours
Method: (§1) Four cancerous cell lines HT29/219 (human, colon, epithelial-like, carcinoma), Caco2 (human, colon, adenocarcinoma), NIH-3T3 (Swiss NIH mouse, embryo fibroblast), and T47D (human, breast, ductal carcinoma) were purchased from the Pasteur Institute, Tehran, Iran. The cells were maintained in RPMI 1640, supplemented with 10% fetal bovine serum, 0.28 units/mL insulin, 100 μg/mL streptomycin, 100 units/mL penicillin, and 0.3 mg/mL glutamine. The cells were grown at 37°C in a humidified atmosphere of 5% CO2, in air.
(§2) The cytotoxicity of the compounds isolated from S. spicigera was assayed using the MTT cytotoxicity assay. The cells (3 × 10^ 4) were plated in 500 μL of medium/well in 48-well plates (NUNC Cell Culture Flasks, Denmark). After an overnight incubation at 37°C, in 5% CO2, and a humidified atmosphere, the samples were added to the cells to a final concentration of 500 μg/mL. “Methotrexate” (positive control) and pure compounds were examined at concentrations ranging from 5, 10, 20, 40, 80, and 100 μg/mL. The plates were incubated at 37°C, in 5% CO2, humidified atmosphere, for 48 hours. After 48 hours, 50 μL of 5 mg/mL MTT (dissolved in PBS) was added per well. After three hours of incubation, the MTT solution was removed and the cells were washed with 100 μL of PBS, twice. One hundred and fifty microlitres of DMSO was added per well, to solubilize the formazan crystals. The optical densities of the wells were then measured at 570 nm (690 nm reference wavelength). By referring to the control (medium with DMSO), the cell survival was assessed.

[3] = tested on: T47D (human, breast, ductal carcinoma); experiment: MTT cytotoxicity assay, T47D; format: cell-based; settings: 48 hours
Method: as §1, §2

[4] = tested on: NIH 3T3 (Swiss embryo fibroblast); experiment: MTT cytotoxicity assay, NIH 3T3; format: cell-based; settings: Mus musculus, NIH3T3, 48 hours
Method: as §1, §2

[5] = tested on: HT29/219, Caco2, NIH-3T3, and T47D; experiment: MTT cytotoxicity assay, all four cell lines (statement in words); format: cell-based; settings: 48 hours
Method: as §1
The cytotoxicity of the compounds isolated from S. spicigera was assayed using the MTT cytotoxicity assay. The cells (3 × 10^ 4) were plated in 500 μL of medium/well in 48-well plates (NUNC Cell Culture Flasks, Denmark). After an overnight incubation at 37°C, in 5% CO2, and a humidified atmosphere, the samples were added to the cells to a final concentration of 500 μg/mL. “Methotrexate” (positive control) and pure compounds were examined at concentrations ranging from 5, 10, 20, 40, 80, and 100 μg/mL. The plates were incubated at 37°C, in 5% CO2, humidified atmosphere, for 48 hours. After 48 hours, 50 μL of 5 mg/mL MTT (dissolved in PBS) was added per well. […] The optical densities of the wells were then measured at 570 nm (690 nm reference wavelength). By referring to the control (medium with DMSO), the cell survival was assessed.

[6] = tested on: HT-29 (colon adenocarcinoma); experiment: MTT cytotoxicity assay, HT-29; format: cell-based; settings: Homo sapiens, 48 hours
Method: as §1, §2

COc1ccc2cc3[n+](cc2c1OC)CCc1cc2c(cc1-3)OCO2 [berberine hydrochloride, reference compound]
LC50 at 24 h [1]: 26 µg/mL

O=C1CC(c2cc(O)cc(O)c2)Oc2cc(O)cc(O)c21 (stereo not shown) [compound 8, 5,7,3′,5′-Tetrahydroxy Flavanone]
IC50 [2]: > 150 µg/mL | IC50 [3]: > 150 µg/mL | IC50 [4]: 101 µg/mL (≈ 349 µM) | inhibition of the cell growth or proliferation (in words) [5]: did not show significant inhibition | IC50 [6]: > 150 µg/mL | LC50 at 24 h [1]: 2 µg/mL (≈ 6.94 µM)

COc1cc(C2CC(=O)c3c(O)cc(OC4OC(COC5OC(C)C(O)C(O)C5O)C(O)C(O)C4O)cc3O2)ccc1O [compound 9, 5,4′-Dihydroxy-3′-methoxyflavanone-7-(6′′-O-α-L-rhamnopyranosyl)-β-D-glucopyranoside]
IC50 [2]: > 150 µg/mL | IC50 [3]: 98.7 µg/mL (≈ 162 µM) | IC50 [4]: 140 µg/mL (≈ 230 µM) | IC50 [6]: > 150 µg/mL | melting point: 256 °C

O=C(c1c(O)cc(O)cc1O)C(O)Cc1ccc(O)cc1 (stereo not shown) [compound 7, nubigenol]
IC50 [2]: 143 µg/mL (≈ 493 µM) | IC50 [3]: 132 µg/mL (≈ 455 µM) | IC50 [4]: 112 µg/mL (≈ 386 µM) | IC50 [6]: > 150 µg/mL
